Assay: saturation vapor pressure
Assay type: physicochemical

| SMILES | Saturation vapor pressure |
| --- | --- |
| CCCOC(C)COC(C)CO (centres unmarked) [DPGPE, dipropylene glycol-n-propyl ether] | 0.03 hPa |
| CCOCC(C)O (centres unmarked) [PGEE, propylene glycol ethyl ether] | 9.4 hPa |
| COCC(C)O (centres unmarked) [PGME, propylene glycol methyl ether] | 8.71 hPa |
| COCC(C)OC(C)=O (centres unmarked) [PGMEA, propylene glycol methyl ether acetate] | 5 hPa |
| CCCOCC(C)O (centres unmarked) [PGPE, propylene glycol-n-propyl ether] | 2.21 hPa |

Reference: US7357832B2, “Water base pigment ink for ink-jet recording, ink cartridge accommodating the same, and ink-jet recording method” (Brother Kogyo Kabushiki Kaisha, priority 2004, dated 2008)
